The values that follow come from patent EP4285989A1 (priority 2021, dated 2022).

Common to all, as to assay type: cell-based
Test [1] deals with Clostridium butyricum M-II588. The settings on record: 1 w/v% carbohydrate, anaerobic, 37°C; for hydrogen generation (hydrogen production amount): 24 hours, calculated from increased amount of gas × hydrogen concentration (FIG. 6); for increased amount of gas: preculture 5 v/v%, 24 hours (FIG. 5).
Test [2] concerns Clostridium butyricum M-II588. Conditions: 1 w/v% carbohydrate, sugar-free medium, anaerobic, 37°C, 20 hours; compared to other carbohydrates (FIG. 1).
Test [3] concerns Clostridium butyricum M-II588. The settings on record: 1 w/v% carbohydrate, anaerobic, 37°C, 20 hours.
Test [4] deals with Staphylococcus aureus IFO 12732. The test is described as follows: Anti-bacterial action: Staphylococcus aureus count in (co-)culture, dilution plate technique. Conditions: 20 hours, 37°C, anaerobic; 0.5 w/v% α-CD; butyric acid bacteria 9.4×10^6 CFU/mL; S. aureus 7.5×10^2 CFU/mL (FIG. 4). On the procedure: Culture of Staphylococcus aureus alone, Staphylococcus aureus and 0.5 w/v% α-CD in coexistence, Staphylococcus aureus and butyric acid bacteria in coexistence, or Staphylococcus aureus and butyric acid bacteria in coexistence with 0.5 w/v% α-CD added was performed at 37°C under an anaerobic condition, and the number of Staphylococcus aureus was counted 20 hours after the start of culture. The amount of Staphylococcus aureus added was 7.5×10^2 CFU/mL as the final concentration, and the amount of butyric acid bacteria added was 9.4×10^6 CFU/mL as the final concentration. The number of Staphylococcus aureus was measured by the dilution plate technique, that is, spreading a moderately diluted culture solution on an agar medium, culturing it at 37°C under an aerobic condition, and counting the number of colonies formed. The test results are shown as mean ± standard error of three samples.

As to `OC[C@H]1O[C@@H](O[C@H]2[C@H](O)[C@@H](O)[C@@H](O[C@]3(CO)O[C@H](CO)[C@@H](O)[C@@H]3O)O[C@@H]2CO)[C@H](O)[C@@H](O)[C@H]1O` [LS, Lactosucrose, reference compound], in test [1], the “hydrogen generation (hydrogen production amount)” value is “very little” and the “increased amount of gas” value was “very little”.
On to α-cyclodextrin [α-CD], for which, in test [1], the “hydrogen generation (hydrogen production amount)” value is recorded as “hydrogen was generated” and the “increased amount of gas” value is given as “significantly increased”. In addition, in test [2], the “proliferation of butyric acid bacteria (turbidity change (ΔOD) at 660 nm)” value is “significantly promoted”. Further, in test [3] (compared to other carbohydrates (FIG. 2)), the “production of butyric acid” value is listed as “significantly promoted”. Moreover, the “production of acetic acid” value in test [3] (compared to other carbohydrates (FIG. 3)) is given as “significantly promoted”. In test [4], the “proliferation of Staphylococcus aureus (number of Staphylococcus aureus)” value was “almost no proliferation inhibiting effect”.
